Counter-ions that a name gives are not always drawn. Like-named read-outs stand apart in the source and are kept apart here.
Assays:
ATXN2-luc [1] = assay: NCATS qHTS (LOPAC pilot, primary and confirmation): ATXN2-luc in S2 cells, 1536-well, Steady-Glo; assay type: cell-based, human; details: for Curve Class: LOPAC library (1,280 compounds) screening optimization, signed sub-classes (-1.1, -2.2, -3 ...); for Efficacy / Inf Activity: curve-fit parameter
Experimental: We next performed a pilot screen assay to optimize the 1536-well qHTS using S2 cells. […] Cytotoxicity was determined using a multiplexed viability assay (CellTiter-Fluor, a fluorescence-based viability assay using Gly-Phe-7-amino-4-trifluoromethylcoumarin substrate).
CellTiter-Fluor was used to determine compound effect on cell viability, and Steady-Glo was used to measure luciferase in a multiplexed assay.
The primary assay was conducted at the NCATS NIH Chemical Genomics Center laboratory. About 4 μl of S2 cell suspension in phenol red–free DMEM was dispensed into wells of 1536-well assay plates. […] Next, SteadyGlo luciferase substrate detection reagent (3 μl) was added to each well and incubated for an additional 5 min at room temperature. Luminescence was then measured on the ViewLux imager equipped with clear filters using a 2 s exposure. All screening operations were performed on a fully integrated robotic system (Kalypsys) containing one RX-130 and two RX-90 anthropomorphic robotic arms (Stäubli). Vehicle-only plates, with DMSO being pin-transferred to columns 5 to 48, were inserted uniformly at the beginning and the end of each library in order to monitor and record any shifts in assay performance.

ATXN2-luc [2] = assay: MSSR pilot screen: ATXN2-luc luciferase assay (Bright-Glo) in H2 cells, single 10 μM dose; assay type: cell-based, human; details: H2 cells, single dose (title: 10 μM compound), overnight
[3] = Homo sapiens, LOPAC library screening optimization, logarithm of AC50 (negative values), read-out: Log AC50 (converted)
[4] = Homo sapiens, LOPAC library screening optimization, read-out: AC50
[5] = LOPAC library screening optimization

| SMILES | SD from mean (ATXN2-luc, Z-score) (ATXN2-luc [2]) [SD] | also measured |
| --- | --- | --- |
| CC1CNCCN1[S+](=O)([O-])c1cccc2cnccc12 (centres unmarked) |  | AC50 (ATXN2-luc [1]; [3]): 22.4 µM; AC50 (ATXN2-luc [1]; [4]): 22.4 µM |
| Br.COc1cc(CC(C)N)c(OC)cc1Br (centres unmarked) |  | AC50 (ATXN2-luc [1]; [3]): 15.8 µM; AC50 (ATXN2-luc [1]; [4]): 15.8 µM; Curve Class (ATXN2-luc [1]): -2.4; Efficacy (ATXN2-luc [1]; [5]): -57.1187; Inf Activity (ATXN2-luc [1]; [5]): -63.2991 |
| COc1cc(C[C@@H](C)N)c(OC)cc1Br.Cl |  | AC50 (ATXN2-luc [1]; [3]): 39.8 µM; AC50 (ATXN2-luc [1]; [4]): 39.8 µM; Efficacy (ATXN2-luc [1]; [5]): -71.0454; Inf Activity (ATXN2-luc [1]; [5]): -73.0357 |
| COc1cc(C[C@H](C)N)c(OC)cc1Br.Cl |  | AC50 (ATXN2-luc [1]; [3]): 28.2 µM; AC50 (ATXN2-luc [1]; [4]): 28.2 µM; Efficacy (ATXN2-luc [1]; [5]): -52.627; Inf Activity (ATXN2-luc [1]; [5]): -55.207 |
| CC(C)NCC(O)COc1cccc2ccccc12 (racemic) [(±)-Propranolol hydrochloride] |  | AC50 (ATXN2-luc [1]; [3]): 14.1 µM; AC50 (ATXN2-luc [1]; [4]): 14.1 µM; Curve Class (ATXN2-luc [1]): -2.2; Log AC50 (ATXN2-luc [1]; LOPAC library screening optimization, logarithm of AC50 (negative values)): -4.6; AC50 (ATXN2-luc [1]; LOPAC library screening optimization, read-out: AC50): 25.1 µM |
| Br.CC1C2Cc3ccc(O)cc3C1(C)CCN2CCc1ccccc1 (single isomer, unassigned; (+)) [(+)-Phenazocine hydrobromide] |  | AC50 (ATXN2-luc [1]; [3]): 17.8 µM; AC50 (ATXN2-luc [1]; [4]): 17.8 µM; Efficacy (ATXN2-luc [1]; [5]): -59.8542; Inf Activity (ATXN2-luc [1]; [5]): -62.9667 |
| Br.C[C@H]1C2Cc3ccc(O)cc3[C@]1(C)CCN2CCc1ccccc1 (single isomer, unassigned; (-)) [(-)-Phenazocine hydrobromide] |  | AC50 (ATXN2-luc [1]; [3]): 35.5 µM; AC50 (ATXN2-luc [1]; [4]): 35.5 µM; Efficacy (ATXN2-luc [1]; [5]): -71.0942; Inf Activity (ATXN2-luc [1]; [5]): -66.3244 |
| O=C1C=CC(=O)c2ccccc21 [4-NAPHTHOQUINONE] | -3.613 |  |
| CC[C@H](O)C(C[C@H](C)N(C)C)(c1ccccc1)c1ccccc1.Cl [(+)-alpha-Methadol hydrochloride] |  | AC50 (ATXN2-luc [1]; [3]): 35.5 µM; AC50 (ATXN2-luc [1]; [4]): 35.5 µM; Efficacy (ATXN2-luc [1]; [5]): -65.8804; Inf Activity (ATXN2-luc [1]; [5]): -66.2609 |
| C[n+]1c2cc(N)ccc2cc2ccc(N)cc21.[Cl-] [ACRIFLAVINIUM HYDROCHLORIDE] | -4.148 |  |
| CCCCCCc1ccc(O)cc1O.Nc1c2ccccc2nc2ccccc12 [ACRISORCIN] | -3.600 |  |
| CC[C@@]1(O)C[C@H](O[C@H]2C[C@H](N(C)C)[C@H](O)[C@H](C)O2)c2c(cc3c(c2O)C(=O)c2c(O)cccc2C3=O)[C@H]1C(=O)OC [AKLAVINE HYDROCHLORIDE] | -3.741 |  |
| Nc1c2ccccc2nc2ccccc12 [AMINACRINE] | -4.103 |  |
| N=c1ccn2c(n1)O[C@H]1[C@H](O)[C@@H](CO)O[C@H]12 [ANCITABINE HYDROCHLORIDE] | -3.031 |  |
| CC(=O)O[C@@H]1C[C@@]2(C)[C@H](c3ccoc3)C[C@H]3O[C@]32[C@]2(C)C(=O)C(O)=C3C(C)(C)C(=O)C=C[C@]3(C)[C@@H]12 [ANTHOTHECOL] | -3.020 |  |
| COc1ccc(C[C@H]2NC[C@H](O)[C@H]2OC(C)=O)cc1 [Anisomycin] | -4.015 |  |
| CC(C)/N=c1\cc2n(-c3ccc(Cl)cc3)c3ccccc3nc-2cc1Nc1ccc(Cl)cc1 [CLOFAZIMINE] | -2.792 |  |
| CO[C@H]1C=C[C@@]23c4cc5c(cc4CN(C[C@@H]2O)[C@H]3C1)OCO5 [CRINAMINE] | -3.651 |  |
| Nc1ccn([C@@H]2O[C@H](CO)[C@@H](O)[C@@H]2O)c(=O)n1 [CYTARABINE] | -3.681 |  |
| COc1cccc2c1C(=O)c1c(O)c3c(c(O)c1C2=O)C[C@@](O)(C(C)=O)C[C@@H]3O[C@H]1C[C@H](N)[C@H](O)[C@H](C)O1 [Daunorubicin hydrochloride] | -4.155 |  |
| Cc1c2ccncc2c(C)c2c1[nH]c1ccccc12 [Ellipticine] | -3.485 |  |

| SMILES | SD from mean (ATXN2-luc, Z-score) (ATXN2-luc [2]) [SD] | also measured |
| --- | --- | --- |
| CC(C)=CCC[C@]1(C)C=Cc2c(O)c3c(c(CC=C(C)C)c2O1)O[C@]12C(=C[C@@H]4C[C@H]1C(C)(C)O[C@@]2(C/C=C(/C)C(=O)O)C4=O)C3=O [GAMBOGIC ACID] | -4.841 |  |
| COC(=O)C[C@](O)(CCCC(C)(C)O)C(=O)O[C@@H]1C(OC)=C[C@]23CCCN2CCc2cc4c(cc2[C@H]13)OCO4 [HOMOHARRINGTONINE] | -3.117 |  |
| CC(=O)[C@]1(O)Cc2c(O)c3c(c(O)c2[C@@H](O[C@H]2C[C@H](N)[C@H](O)[C@H](C)O2)C1)C(=O)c1ccccc1C3=O [IDARUBICIN HCl] | -2.944 |  |
| CC(=O)[C@]1(O)Cc2c(O)c3c(c(O)c2[C@@H](O[C@H]2C[C@H](N)[C@H](O)[C@H](C)O2)C1)C(=O)c1ccccc1C3=O [IDARUBICIN] | -2.719 |  |
| CC(C)[N+](C)(CCC(C(N)=O)(c1ccccc1)c1ccccc1)C(C)C [ISOPROPAMIDE IODIDE] | -4.073 |  |
| O[C@H]1[C@H]2c3cc4c(cc3CN3CCC(=C[C@@H]1O)[C@H]23)OCO4 [Lycorine hydrochloride] | -2.968 |  |
| Cl.Cl.O=C1c2c(O)ccc(O)c2C(=O)c2c(NCCNCCO)ccc(NCCNCCO)c21 [MITOXANTHRONE HYDROCHLORIDE] | -4.333 |  |
| O=C1c2c(O)ccc(O)c2C(=O)c2c(NCCNCCO)ccc(NCCNCCO)c21 [Mitoxantrone dihydrochloride] | -3.666 |  |
| O=C(Nc1ccc([N+](=O)[O-])cc1Cl)c1cc(Cl)ccc1O [Niclosamide] | -4.393 |  |
| N=C1C=CC(=C(c2ccc(N)cc2)c2ccc(N)cc2)C=C1 [PARAROSANILINE PAMOATE] | -2.740 |  |
| O=C1C=C2C(=CCOC2O)O1 (centres unmarked) [PATULIN] | -3.651 |  |
| COC(=O)[C@]1(C)CC[C@]2(C)CC[C@]3(C)C4=CC=C5C(=CC(=O)C(O)=C5C)[C@]4(C)CC[C@@]3(C)[C@@H]2C1 [PRISTIMERIN] | -3.883 |  |
| COc1ccc(C[C@H](N)C(=O)N[C@H]2[C@@H](O)[C@H](n3cnc4c(N(C)C)ncnc43)O[C@@H]2CO)cc1 [PUROMYCIN HYDROCHLORIDE] | -3.716 |  |
| COc1cc(/C=C/C(=O)N2CCC=CC2=O)cc(OC)c1OC [Piperlongumine] | -2.973 |  |
| COc1ccc(C[C@H](N)C(=O)N[C@H]2[C@@H](O)[C@H](n3cnc4c(N(C)C)ncnc43)O[C@@H]2CO)cc1 [Puromycin dihydrochloride] | -4.723 |  |
| CCN(CC)CCCC(C)Nc1c2ccc(Cl)cc2nc2ccc(OC)cc12 (centres unmarked) [Quinacrine dihydrochloride dihydrate] | -3.270 |  |
| CC[C@@]1(O)C[C@H](O)c2c(cc3c(c2O)C(=O)c2c(O)ccc(O)c2C3=O)[C@H]1C(=O)OC [RUTILANTINONE] | -2.722 |  |
| COc1cc([C@@H]2c3cc4c(cc3[C@@H](O[C@@H]3O[C@@H]5CO[C@@H](c6cccs6)O[C@H]5[C@H](O)[C@H]3O)[C@H]3COC(=O)[C@H]23)OCO4)cc(OC)c1O [TENIPOSIDE] | -2.832 |  |
| C[CH2][Hg][S]c1ccccc1C(=O)[O-].[Na+] [THIMEROSAL] | -5.645 |  |
| C[C@H]1CC[C@]2(NC1)O[C@H]1C[C@H]3[C@@H]4CC[C@H]5C[C@@H](O[C@@H]6O[C@H](CO)[C@H](O[C@@H]7O[C@H](CO)[C@@H](O)[C@H](O[C@@H]8OC[C@@H](O)[C@H](O)[C@H]8O)[C@H]7O[C@@H]7O[C@H](CO)[C@@H](O)[C@H](O)[C@H]7O)[C@H](O)[C@H]6O)CC[C@]5(C)[C@H]4CC[C@]3(C)[C@H]1[C@@H]2C [TOMATINE] | -4.999 |  |
